We go through three compounds from patent US6355823B1 (Board of Regents, The University of Texas System, priority 1999, dated 2002).

Assay [1] deals with intestinal Na/phosphate co-transporter. Kind of assay: [3H]AZPP photolabeling of Ca-BBM protein, papain digest and immunoprecipitation. In kind it is binding. As to the method:
Ca-BBM protein (1.8 nmoles 2′-PP binding sites as determined from 9 pmoles [^3H]2′-PP bound/mg protein) was labeled with [^3H]AZPP (1 minute incubation with 10 μM [^3H]AZPP at 4° C. in 150 mM NaCl and 10 mM sodium borate pH 7, followed by a 1 minute exposure to visible light). Following centrifugation to remove excess label, BBM protein was digested with papain as previously described in Peerce, B. E. (1995) Biochim. Biophys. Acta. 1239: 11-21 and Peerce, B. E.; Cedilote, M. and Clarke, R. D. (1995) Biochim. Biophys. Acta. 1239: 1-10, and resolved into membrane-retained and soluble peptides. 95% of the radioactivity was in the membrane-retained fraction. SDS-solubilization of the membrane-retained fraction released 85% of the radioactivity.
A polyclonal antibody to the intestinal Na/phosphate co-transporter (KL9.2) developed in the laboratory was used to immunoprecipitate CHAPS-solubilized [^3H]AZPP-labeled Ca-BBM protein. The complex was electrophoresed by SDS-PAGE and stained with Coomassie blue, according to the method of Laemmli, U.K 1970 Nature (Lond.) 227: 680-685. A track was cut into 2 mm slices, and the slices counted for tritium. […] The residual 12%±2%, n=3, of the applied label appeared to be non-specifically associated with lipid (chloroform:methanol extracted).

Assay [2] has as its target T1, intestinal Na/phosphate co-transporter (Oryctolagus cuniculus, UniProt G1SIP4).
T1 sequence (G1SIP4 1-715): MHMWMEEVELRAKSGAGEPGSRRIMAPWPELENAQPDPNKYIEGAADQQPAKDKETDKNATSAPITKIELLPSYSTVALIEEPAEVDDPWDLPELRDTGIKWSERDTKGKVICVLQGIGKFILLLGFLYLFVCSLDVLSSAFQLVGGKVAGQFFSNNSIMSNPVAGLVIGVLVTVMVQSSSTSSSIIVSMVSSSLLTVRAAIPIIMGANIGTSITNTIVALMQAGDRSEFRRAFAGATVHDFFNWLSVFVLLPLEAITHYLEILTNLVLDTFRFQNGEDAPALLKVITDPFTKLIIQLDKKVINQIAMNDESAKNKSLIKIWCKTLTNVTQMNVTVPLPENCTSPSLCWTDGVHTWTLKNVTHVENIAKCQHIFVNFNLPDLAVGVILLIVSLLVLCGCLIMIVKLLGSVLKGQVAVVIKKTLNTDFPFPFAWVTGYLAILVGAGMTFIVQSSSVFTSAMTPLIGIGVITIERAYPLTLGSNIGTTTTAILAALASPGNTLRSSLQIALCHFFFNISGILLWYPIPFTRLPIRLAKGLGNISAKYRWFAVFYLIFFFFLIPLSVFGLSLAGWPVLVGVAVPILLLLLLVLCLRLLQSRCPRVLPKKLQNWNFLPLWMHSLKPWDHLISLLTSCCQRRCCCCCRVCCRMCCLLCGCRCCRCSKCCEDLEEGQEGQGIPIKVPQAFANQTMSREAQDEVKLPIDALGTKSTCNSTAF
The experiment in a line: Na-dependent [32P]phosphate uptake by rabbit intestinal brush border membrane (BBM) vesicles.

Assay [3] has as its target T2, intestinal BBM Na/phosphate co-transporter (Oryctolagus cuniculus, UniProt G1SIP4).
T2 sequence (G1SIP4 25-715): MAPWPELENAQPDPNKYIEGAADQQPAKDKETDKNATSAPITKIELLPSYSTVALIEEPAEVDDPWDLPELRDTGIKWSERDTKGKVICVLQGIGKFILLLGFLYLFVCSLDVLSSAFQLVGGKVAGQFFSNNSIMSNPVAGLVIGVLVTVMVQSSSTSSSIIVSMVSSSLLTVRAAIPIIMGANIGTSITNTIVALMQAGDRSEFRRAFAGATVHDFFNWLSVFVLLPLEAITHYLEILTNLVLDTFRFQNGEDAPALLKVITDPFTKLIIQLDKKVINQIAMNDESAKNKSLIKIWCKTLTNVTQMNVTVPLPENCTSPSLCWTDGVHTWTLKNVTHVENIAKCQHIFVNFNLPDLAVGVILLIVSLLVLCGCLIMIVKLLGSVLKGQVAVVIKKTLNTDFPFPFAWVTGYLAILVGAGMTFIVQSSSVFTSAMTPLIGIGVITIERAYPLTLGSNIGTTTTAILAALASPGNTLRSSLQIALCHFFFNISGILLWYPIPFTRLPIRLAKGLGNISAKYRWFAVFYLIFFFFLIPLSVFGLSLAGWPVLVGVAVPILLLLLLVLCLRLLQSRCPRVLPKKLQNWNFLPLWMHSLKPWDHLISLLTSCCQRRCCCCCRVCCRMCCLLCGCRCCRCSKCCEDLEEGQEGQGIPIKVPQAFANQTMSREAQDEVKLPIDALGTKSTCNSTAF
To be noted: read-out: concentration inhibiting 50% of Na-dependent 2′-PP bound to Ca-BBM.

On to `[N-]=[N+]=Nc1cc(CCC(=O)c2c(O)cc(OP(=O)(O)O)cc2O)ccc1O` [AZPP, 1-[2,6-dihydroxy-4-(phosphonooxy)phenyl]-3-(3-azido-4-hydroxyphenyl)-1-propanone], for which, in assay [1], the “labeled species on urea gel electrophoresis after papain digestion of SDS soluble protein” value is given as “single 24 kDa polypeptide” and the “radioactivity released by SDS-solubilization of the membrane-retained fraction” value worked out at 85%. Moreover, in assay [1] (10 μM [3H]AZPP, 4° C., 150 mM NaCl, visible light), the “radioactivity in the membrane-retained fraction after papain digestion” value stood at 95%. For the same compound, in assay [1] (CHAPS-solubilized labeled Ca-BBM protein), the “labeled species on SDS-PAGE after immunoprecipitation with antibody KL9.2” value is given as “single 120-kDa polypeptide”. Moreover, in assay [1] (chloroform:methanol extracted, n=3), the “residual applied label non-specifically associated with lipid” value amounted to 12%.

For `O=C(CCc1ccc(O)cc1)c1c(O)cc(NP(=O)(O)O)cc1O` [NHPP], in assay [2] (Dixon plot, with respect to phosphate), the “type of inhibition of Na-dependent phosphate uptake” value is given as “competitive inhibitor”. In addition, the Ki in assay [2] (read-out: K1 (Kl) for inhibition of Na-dependent phosphate uptake, from replot of Dixon plot slope, phosphate 50, 100, 250 μM, n=3) is 6.9 ± 1 µM.

With Phosphate [reference compound], the IC50 in assay [3] is 105 ± 15 µM.
